The structures appear in SMILES notation. Several values for one entry are separate records, joined by “and”; a condition that tells them apart may be missing. Equal entries are not always repeated.

The nature of assay [1]: Effective concentration in human ATP binding cassette transporter A1 (ABCA1) transcriptional activation assay.
In assay [2] the target is T1, Oxysterols receptor LXR-alpha (Homo sapiens) (UniProt Q13133).
T1 sequence (whole entry): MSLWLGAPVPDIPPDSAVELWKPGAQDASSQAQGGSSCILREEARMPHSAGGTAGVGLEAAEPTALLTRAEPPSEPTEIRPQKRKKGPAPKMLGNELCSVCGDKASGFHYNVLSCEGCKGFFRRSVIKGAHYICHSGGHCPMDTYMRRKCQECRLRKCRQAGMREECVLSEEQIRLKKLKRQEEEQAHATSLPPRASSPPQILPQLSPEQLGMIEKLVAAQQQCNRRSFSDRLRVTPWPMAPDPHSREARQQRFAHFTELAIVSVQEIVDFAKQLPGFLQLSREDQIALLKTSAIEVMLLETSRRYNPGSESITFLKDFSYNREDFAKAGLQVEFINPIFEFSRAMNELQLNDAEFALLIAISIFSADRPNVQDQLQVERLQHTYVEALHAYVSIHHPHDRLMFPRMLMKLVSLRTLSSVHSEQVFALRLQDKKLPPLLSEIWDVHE
Description: Relative efficacy for Steroid receptor coactivator-1 (SRC1) recruitment to human LXRalpha compared to GW-3965

Assay [3] concerns the target T2, Oxysterols receptor LXR-beta (Homo sapiens, UniProt P55055).
T2 sequence (P55055 whole entry): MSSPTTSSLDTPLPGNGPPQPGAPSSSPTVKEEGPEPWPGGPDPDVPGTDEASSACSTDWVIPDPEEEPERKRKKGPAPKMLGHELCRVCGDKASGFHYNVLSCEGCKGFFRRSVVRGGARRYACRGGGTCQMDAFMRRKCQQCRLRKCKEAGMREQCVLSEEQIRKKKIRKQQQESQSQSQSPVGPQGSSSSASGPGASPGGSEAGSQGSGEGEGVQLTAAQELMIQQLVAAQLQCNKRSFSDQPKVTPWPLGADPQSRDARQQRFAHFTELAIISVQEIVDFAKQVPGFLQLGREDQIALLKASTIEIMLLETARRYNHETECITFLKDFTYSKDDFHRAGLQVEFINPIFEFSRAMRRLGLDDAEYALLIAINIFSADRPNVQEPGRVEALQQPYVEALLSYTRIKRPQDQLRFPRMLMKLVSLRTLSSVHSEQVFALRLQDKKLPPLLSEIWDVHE
Briefly: Effective concentration for Steroid receptor coactivator-1 (SRC1) recruitment to human LXRbeta (Liver X receptor).

The target in assay [4] is Glycogen synthase kinase-3 beta (Homo sapiens, UniProt P49841). Put plainly: Inhibition of human GSK3-beta.
For assay [5], the target named is T3, Oxysterols receptor LXR-alpha (Homo sapiens, UniProt Q13133).
T3 sequence (Q13133 whole entry): T1 sequence (whole entry)
Briefly: Effective concentration for Steroid receptor coactivator-1 (SRC1) recruitment to human LXRalpha (Liver X receptor).

Assay [6] concerns the target T4, Oxysterols receptor LXR-beta (Homo sapiens) (UniProt P55055).
T4 sequence (whole entry): T2 sequence (P55055 whole entry)
Put plainly: Relative efficacy in Steroid receptor coactivator-1 (SRC1) recruitment to human LXRbeta compared to GW-3965.

Glycogen synthase kinase-3 beta, sequence (P49841 whole entry): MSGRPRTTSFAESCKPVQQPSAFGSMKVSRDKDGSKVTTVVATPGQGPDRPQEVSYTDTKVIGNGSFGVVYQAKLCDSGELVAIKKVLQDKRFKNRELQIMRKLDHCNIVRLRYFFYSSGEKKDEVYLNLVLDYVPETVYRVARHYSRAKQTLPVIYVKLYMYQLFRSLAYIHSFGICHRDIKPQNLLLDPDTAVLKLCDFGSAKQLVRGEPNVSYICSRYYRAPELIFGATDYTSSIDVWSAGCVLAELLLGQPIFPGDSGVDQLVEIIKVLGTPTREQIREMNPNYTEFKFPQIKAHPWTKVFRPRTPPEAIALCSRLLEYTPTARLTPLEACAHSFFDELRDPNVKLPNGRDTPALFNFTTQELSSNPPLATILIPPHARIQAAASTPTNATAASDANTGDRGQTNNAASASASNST

In assay [1], `O=S(=O)(c1ccccc1)N(CC(F)(F)F)c1ccc(C(O)(C(F)(F)F)C(F)(F)F)cc1` [T091317] showed an EC50 of 70 nM. Moreover, the RE was 1 in the assay listed under Homo sapiens; 1.1 and 0.8 in assay [2].
As for `O=C1C(Nc2ccccc2)=C(c2ccccc2)C(=O)N1Cc1ccccc1`, the 50% effective concentration (EC50) in assay [1] was found to be 1320 nM; in assay [3] it was 70 nM; in assay [5], 100 nM. Besides, the RE is 0.6 in the assay listed under Homo sapiens; 0.3 and 0.5 in assay [2]. Also, the IC50 in assay [4] was above 5000 nM.
`COc1ccc(NC2=C(c3ccccc3)C(=O)N(Cc3ccccc3)C2=O)cc1`: the values for the 50% effective concentration (EC50) in assay [1], in assay [3] and in assay [5] were 80 nM, 40 nM and 50 nM, respectively. Also, the RE (in the assay filed under Homo sapiens; in assay [2]) was 0.9 in each case. Besides, in assay [4], the IC50 was above 5000 nM.
With `O=C(O)Cc1cccc(OCCCN(Cc2cccc(C(F)(F)F)c2Cl)CC(c2ccccc2)c2ccccc2)c1`, the EC50 stood at 170 nM in assay [1] and 80 nM in assay [5]. For the same compound, the RE (in the assay listed under Homo sapiens; in assay [6]; in assay [2]) was 1 each time.
In the case of `CCN1C(=O)C(Nc2ccc(Cl)cc2)=C(c2ccccc2)C1=O`, the EC50 came out at 4550 nM in assay [1], 575 nM in assay [3] and 725 nM in assay [5]. The RE in the assay listed under Homo sapiens was 0.4; in assay [2], 0.5 and 0.6. In assay [4], this compound yielded an IC50 above 5000 nM.
On to `COc1ccc(NC2=C(c3ccccc3)C(=O)N(C)C2=O)cc1`, for which the concentration giving a half-maximal response (EC50) was found to be 840 nM in assay [1], 300 nM in assay [3] and 575 nM in assay [5]. In addition, the RE stood at 1.4 in the assay filed under Homo sapiens and 0.9 in assay [2]. The compound further yielded an IC50 in assay [4] above 2000 nM.
For the compound `CCN1C(=O)C(Nc2ccc(OC)cc2)=C(c2ccccc2)C1=O`, the figures for the EC50 in assay [1], in assay [3] and in assay [5] were 10200 nM, 200 nM and 300 nM, respectively. Further, the RE in the assay filed under Homo sapiens is 0.4; in assay [2] it was 1.1 and 0.9. The same compound yielded a half-inhibitory concentration (IC50) in assay [4] above 5000 nM.
As to `O=C1C(Nc2ccc(Cl)cc2)=C(c2ccccc2)C(=O)N1Cc1ccccc1`, the concentration for a half-maximal effect (EC50) in assay [1] worked out at 1420 nM; in assay [3], 110 nM; in assay [5] it was 130 nM. Moreover, the RE was 0.4 in the assay filed under Homo sapiens; 0.3 and 0.4 in assay [2]. For the same compound, the half-maximal inhibitory concentration (IC50) in assay [4] is above 5000 nM.
For `CN1C(=O)C(Nc2ccccc2)=C(c2ccccc2)C1=O`, the EC50 in assay [1] turned out to be 4650 nM; in assay [3], 850 nM; in assay [5] it was 1590 nM. Moreover, the RE in the assay listed under Homo sapiens was 0.3; in assay [2], 0.5 and 0.6. In assay [4], this compound registered an IC50 above 5000 nM.
For `COc1ccc(NC2=C(c3ccccc3)C(=O)N(c3ccccc3)C2=O)cc1`, the EC50 amounted to 1120 nM in assay [1], 260 nM in assay [3] and 275 nM in assay [5]. The RE was 0.7 in the assay filed under Homo sapiens; 0.7 and 0.6 in assay [2]. Moreover, the 50% inhibitory concentration (IC50) in assay [4] was above 5000 nM.
Regarding `CCN1C(=O)C(Nc2ccccc2)=C(c2ccccc2)C1=O`, the concentration for a half-maximal effect (EC50) in assay [1] amounted to 1790 nM; in assay [3], 560 nM; in assay [5], 890 nM. The RE in the assay filed under Homo sapiens amounted to 0.5; in assay [2] it was 0.7. The compound also registered a 50% inhibitory concentration (IC50) in assay [4] above 5000 nM.

The values above are taken from ChEMBL document CHEMBL1145169, “Discovery of substituted maleimides as liver X receptor agonists and determination of a ligand-bound crystal structure” (J Med Chem, 2005).
